# Source: US9707201B2 (Leptrex Ltd, priority 2013, dated 2017)
# Entries after “also recorded” stand apart in the source; their conditions may differ.
# Assays:
# [1] = Thiosulfinate half-life in 100% aqueous garlic extract solution by quantitative HPLC; assay type: physicochemical; conditions: buffer, 100% aqueous solution, mean (SD), n=3, read-out: Half-Life (hours) at 20° C.
# [2] = Thiosulfinate half-life in aqueous ethanol garlic extract solutions by quantitative reverse phase HPLC; assay type: physicochemical; conditions: buffer, initial allicin 400 ppm, mean (SD), n=3
# Description: The solutions were prepared from a single stock aqueous garlic extract solution that was diluted with the appropriate volume of ethanol to produce the 25%, 50% and 75% ethanol garlic aqueous extract solutions. The aqueous stock solution of garlic extract assayed by HPLC was determined to have an allicin content of 1600 ppm (1600 mg allicin in 1000 ml water) and each of the 25%, 50% and 75% ethanol:aqueous dilutions prepared from the aqueous garlic extract stock solution were prepared to provide an initial allicin concentration of 400 ppm.
# The decomposition profiles of MeS(O)SAll and AllS(O)SMe (the MA-AM mixture collectively referred to as Analogue-1), AllS(O)SAll (Allicin, Analogue-2) and AllS(O)SPn-(E,Z) (Analogue-3) thiosulfinates were then determined by quantitative reverse phase HPLC. The quantitative HPLC procedure involved determining the relative concentrations of each thiosulfinate in the various solutions at the various ageing temperatures as a function of the time that each solution was stored at a carefully controlled temperature. The initial measurement of the concentration value for each thiosulfinate determined immediately after freshly prepared solutions were prepared provides the 100% thiosulfinate concentration value for the start time (time zero) at which the time-lapse thermal decomposition measurements started to commence.
# The quantitative HPLC data recorded for the MA-AM mixture (Analogue-1), allicin (Analogue-2) and AllS(O)SPn-(E,Z) (Analogue-3) established that each thiosulfinate was subject to a first-order exponential decay process when the 25%, 50% and 75% aqueous:ethanol garlic extract solutions were stored (aged) through the temperature range 40-20° C. FIGS. 2-4 show exponential decay profiles obtained for MA-AM (Analogue-1), allicin (Analogue-2) and AllS(O)SPn-(E,Z) (Analogue-3)—FIGS. 2-4 produced from data obtained from the HPLC analyses of the same single sample whose solvent composition was ethanol:water (25:75% by volume) with an initial allicin concentration of 400 ppm. The decay profiles were obtained using ORIGIN version 6.1 software (Origin is a registered trade mark of OriginLab Corporation) software that determined the best fit for decomposition profiles as being first-order exponential decay. From the decomposition profiles shown in FIGS. 2-4 it is possible to interpolate to determine the time required for each thiosulfinate to decompose to 50% of its initial concentration level that had been initially measured at the outset when controlled temperature storage started.
# [3] = assay type: physicochemical; conditions: buffer
# Description: 1. Aqueous solutions were prepared using 70 ml water and 6 g McCormick garlic powder, along with methiin or alliin in the proportions shown in table 37 below. The liquid in the top row was prepared from a blend of the following liquids:
# 2. All solutions were prepared at a temperature of 21° C. with the garlic powder reaction mixture being stirred for 3 hours. At the end of the 3 hour stirred reaction period, the solutions were filtered and immediately assayed by HPLC for their respective A-1, A-2 and A-4 content. These initial concentration values were considered as Time Zero values. 3. After Time Zero thiosulfinate concentrations had been obtained, the solutions were stored at stable temperatures within accurate temperature regulated ovens. 4. Samples of each temperature stored aqueous solution were withdrawn at appropriate time intervals and assayed by HPLC for A-1, A-2 and A-4 content. The decay of the blended liquid can be seen in FIGS. 64, 65 and 66. […] 5. The decomposition profile graphs for MMTSO, MA-AM and Allicin are shown in FIGS. 67, 68 and 69 respectively. These figures were constructed by expressing their respective HPLC peak area integration values measured at 240 nm as a function of sample storage time to obtain Relative % Concentration values. In all cases the best fit was obtained with MicroCal Origin s/w using a first order exponential decay fit. In FIG. 67, the half-life value was obtained by interpolating the time at which the A-4 (MMTSO) peak provides ½ integral value of that initially obtained for A-4 peak at Time Zero. Half-life for A-4 at 55° C. was determined as 51.1 hrs. Similarly in FIG. 68, the half-life value was obtained by interpolating the time at which A-1 (MA-AM) peak provides ½ integral value of that initially obtained for A-1 peak at Time Zero. Half-life for A-1 was determined as 30.2 hrs. Once again, the half-life value was obtained by interpolating the time at which A-2 (Allicin) peak provides ½ integral value of that initially obtained for A-2 peak at Time Zero. Half-life for A-2 is determined as 9.4 hrs.
# [4] = Ageing of aqueous FG + P-1 reaction solution at 40° C., thiosulfinate content by HPLC; assay type: physicochemical; conditions: for A4 Peak Integration Value × 10^−4: 240 nm
# Description: Similar studies were conducted with an aqueous solution of analogue 4 (MMTSO) produced by the method of process 6a, as set out in row 4 of table 23.
# 1. The reaction mixture (12.0 g FG+400 mg P-1+70 ml H2O) was filtered immediately after 4 hour reaction time and served as the stock solution for this study.
# 2. The filtered solution was divided into 2 portions. One to be stored frozen and the other to be stored at 40° C.
# 3. The portion of filtered solution to be used to determine the half-life of A4 was placed in a sealed glass bottle that was placed in an oven that provided a stable temperature of 40° C.
# 4. At irregular intervals a sample of the aqueous solution was withdrawn and analysed by HPLC.
# FIGS. 57-60 show the chromatogram obtained after 0, 120, 168 and 672 hours respectively. Their concentrations are set out below in table 32: […]
# [5] = tested on: MRSA clinical isolate QMUL301; assay: Standard agar diffusion test, zones of inhibition; assay type: cell-based, methicillin-resistant Staphylococcus aureus; conditions: for Activity of the solution after storage: aqueous solution stored at 17° C. for 56 days
# Description: The activity of powders and liquids was determined using standard agar diffusion tests. Susceptibility of isolates by measuring the zones of inhibition around a measured amount of the anti-microbial agent.
# Bacteria: MRSA clinical isolate QMUL301 was used. Overnight broth cultures in isosensitest broth were prepared. These were diluted to give a final concentration of 10^5 cfu/ml
# Media: Isosensitest agar (Oxoid Ltd).
# • A broth containing 10^5 cfu/ml was prepared in peptone water. • 0.2 ml was spread over each isosensitest plate. • Plates were air dried and a 6 mm well cut in the centre of the plate. • A volume of 100 ul of liquid or 100 ug of solid was added to each well. • Plates were incubated overnight at 37° C. • The presence of zones of inhibition around a well is indicative of biological activity being present. No zone around the 6 mm well, (as with the negative control) represented no biological activity.
# [6] = tested on: Helicobacter pylori; conditions: Canizares et al. 2004; cited from earlier work
# [7] = tested on: herpes simplex virus types 1 and 2, parainfluenza virus type 3 and rhinovirus type 2; conditions: in vitro, compounds present in garlic extracts; cited from earlier work
# [8] = aqueous solution, 0 hours aged at 40° C.
# [9] = aqueous solution, 120 hours aged at 40° C.
# [10] = aqueous solution, 168 hours aged at 40° C.
# [11] = aqueous solution, 672 hours aged at 40° C.
# [12] = aqueous solution (12.0 g FG + 400 mg P-1 + 70 ml H2O), 0 hours aged at 40° C.
compound,measurement,setting,value
C=CC[S+]([O-])SC=CC (stereo not shown),half-life,[1]; initial allicin (A-2) concentration 375 ppm,140 h
same,half-life,[1]; initial allicin (A-2) concentration 1500 ppm,77.2 h
same,half-life,"[2]; 25% EtOH, 20° C.",8040 min
same,half-life,"[2]; 25% EtOH, 25° C.",3970 min
same,half-life,"[2]; 25% EtOH, 30° C.",2370 min
same,half-life,"[2]; 25% EtOH, 35° C.",1500 min
same,half-life,"[2]; 25% EtOH, 40° C.",918 min
same,half-life,"[2]; 50% EtOH, 20° C.",12200 min
same,half-life,"[2]; 50% EtOH, 25° C.",7280 min
same,half-life,"[2]; 50% EtOH, 30° C.",3940 min
same,half-life,"[2]; 50% EtOH, 35° C.",1730 min
same,half-life,"[2]; 50% EtOH, 40° C.",1040 min
same,half-life,"[2]; 75% EtOH, 20° C.",9640 min
same,half-life,"[2]; 75% EtOH, 25° C.",4400 min
same,half-life,"[2]; 75% EtOH, 30° C.",2810 min
same,half-life,"[2]; 75% EtOH, 35° C.",1820 min
same,half-life,"[2]; 75% EtOH, 40° C.",1060 min
"CS[S+](C)[O-] (stereo not shown) [Analogue A-4, methyl methyl-thiosulfinate]",Half-Life hrs,[3],51.1 h
same,A-4 ppm,"[4]; aqueous solution (Red Spot), stored at 40° C. for 672 hours",1597 ppm
same,A4 concentration converted from peak integration value,[4]; [8],(=2410 ppm)
same,A4 Peak Integration Value × 10^−4,[4]; [8],1153
same,A4 Peak Integration Value × 10^−4,[4]; [9],1074
same,A4 Peak Integration Value × 10^−4,[4]; [10],1004
same,A4 Peak Integration Value × 10^−4,[4]; [11],(743)
same,A4 Peak Integration Value × 10^−4,"[4]; aqueous solution, 672 hours aged at 40° C., listed as A4",764
same,Activity of the solution after storage,[5],remains active
same,Antimicrobial activity against MRSA,[5]; aqueous solutions,significant antimicrobial activity; also recorded: at least the same level of antimicrobial activity against MRSA as A-2
"allyl allyl-thiosulfinate [Analogue A-2, reference compound]",Half-Life hrs,[3],9.4 h
same,concentration (ppm),[4]; [12],47 ppm
same,Inhibition of the in vitro growth of Helicobacter pylori,[6],show inhibition
same,Activity of the solution after storage,[5],lost all measurable activity
same,Virucidal activity,[7],possess virucidal activity
methyl allyl-thiosulfinate (MA) and its structural isomer allyl methyl-thiosulfinate (AM) [Analogue A-1],Half-Life hrs,[3],30.2 h
same,concentration (ppm),[4]; [12],843 ppm
same,concentration (ppm),[4]; [9],415 ppm
same,concentration (ppm),[4]; [10],314 ppm
same,concentration (ppm),[4]; [11],35 ppm
